Results on eleven compounds are retold here after ChEMBL document CHEMBL3638724, “Selective androgen receptor modulators” (2015).

The term IC50 denotes the concentration that gives 50% inhibition. Low readings indicate higher potency, high ones lower potency.

The experiment deals with T1, Androgen receptor (Homo sapiens, UniProt P10275).
T1 sequence (P10275 whole entry): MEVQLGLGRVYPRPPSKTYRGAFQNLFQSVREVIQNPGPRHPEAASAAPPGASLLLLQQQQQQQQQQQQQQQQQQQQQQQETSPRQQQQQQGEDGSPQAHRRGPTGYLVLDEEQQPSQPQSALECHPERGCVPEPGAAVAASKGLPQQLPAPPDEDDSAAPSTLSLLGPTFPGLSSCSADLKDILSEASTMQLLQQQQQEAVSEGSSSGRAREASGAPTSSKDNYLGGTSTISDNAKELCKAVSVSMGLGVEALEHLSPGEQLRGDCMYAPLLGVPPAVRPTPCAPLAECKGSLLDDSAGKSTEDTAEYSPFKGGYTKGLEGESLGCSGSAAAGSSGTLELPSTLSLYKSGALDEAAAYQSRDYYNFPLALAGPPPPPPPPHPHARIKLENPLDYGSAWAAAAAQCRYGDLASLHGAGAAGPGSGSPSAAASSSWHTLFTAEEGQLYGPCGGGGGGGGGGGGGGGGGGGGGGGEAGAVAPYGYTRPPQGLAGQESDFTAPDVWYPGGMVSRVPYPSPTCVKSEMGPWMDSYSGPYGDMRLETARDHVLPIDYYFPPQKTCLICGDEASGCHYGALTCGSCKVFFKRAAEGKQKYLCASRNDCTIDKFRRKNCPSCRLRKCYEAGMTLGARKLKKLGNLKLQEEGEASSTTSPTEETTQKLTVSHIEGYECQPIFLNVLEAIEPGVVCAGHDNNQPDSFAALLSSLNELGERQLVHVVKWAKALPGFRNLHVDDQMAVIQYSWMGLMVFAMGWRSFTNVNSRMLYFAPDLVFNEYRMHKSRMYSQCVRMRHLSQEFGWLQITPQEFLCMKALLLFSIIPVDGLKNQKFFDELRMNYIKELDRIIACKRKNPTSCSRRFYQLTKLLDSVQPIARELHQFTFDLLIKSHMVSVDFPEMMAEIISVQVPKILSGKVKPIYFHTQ
The experiment in a line: The assay was performed as specified by the manufacturer (Invitrogen, Madison, Wis.). Briefly, 1 ul of 10 mM compound was added to 500 ul of AR screening buffer in a 1.5 ml eppendorf tube to make a 2x10-5M stock. 10-fold serial dilutions of the test compounds were prepared ranging in concentration from 10^-5M to 10-12M. Each dilution was added in triplicate to a black 384-microtiter plate. The test compounds will be diluted 2-fold in the final reaction. 2xAR-Fluormone complex was prepared with 2 nM Flourmone AL Green and 30 nM AR. 25 ul of 2x complex was aliquoted to each reaction well, such that the final reaction volume was 50 ul per well. The plate was sealed with a foil cover and incubated in the dark at room temperature.
The compound `N#Cc1ccc2[nH]c3c(O)cccc3c2c1` gave a half-inhibitory concentration (IC50) of 4600 nM.

`OC1(C(F)(F)F)CCCc2c1[nH]c1cc(Cl)c(Cl)cc21` (stereo unspecified) yielded an IC50 of 1560 nM.

Regarding `OC1(C(F)(F)F)CCCc2c1[nH]c1c(Cl)cc(Cl)c(Cl)c21` (stereo unspecified), the IC50 was > 10000 nM.

`OC1(C(F)(F)F)CCCc2c1[nH]c1ccc(Cl)c(Cl)c21` (stereo unspecified) showed an IC50 of 40200 nM.

In the case of `O[C@]1(C(F)(F)F)CCCc2c1[nH]c1c(Cl)cc(Cl)cc21`, the 50% inhibitory concentration (IC50) stood at 20 nM.

`Oc1cccc2c1[nH]c1ccc(Cl)c(Cl)c12`: the half-maximal inhibitory concentration (IC50) came out at 15 nM.

In turn, `Oc1cccc2c1[nH]c1ccc(Br)cc12` gave an IC50 of 1420 nM.

For the compound `O[C@]1(C(F)(F)F)CCCc2c1[nH]c1cc(Cl)c(Cl)cc21`, half-maximal inhibition (IC50) was put at 13 nM.

Turning to `O[C@@]1(C(F)(F)F)CCCc2c1[nH]c1cc(Cl)c(Cl)cc21`, the IC50 is > 1000 nM.

Regarding `Oc1c(Br)ccc2c1[nH]c1cc(Cl)c(Cl)cc12`, the half-maximal inhibitory concentration (IC50) turned out to be 34 nM.

With `OC1(C(F)(F)F)c2[nH]c3c(Cl)cc(F)cc3c2CCC1C(F)(F)F` (stereo unspecified), the IC50 is > 10000 nM.
